Data set [1] relates to T. cruzi epimastigotes. The note with it: ref [14], cited from earlier work.
The test system of data set [2] is T. cruzi epimastigotes. Put plainly: T. cruzi epimastigotes growth inhibition, [3H] thymidine uptake assay. It counts as cell-based, Trypanosoma cruzi. The note with it: for IC50: 72 h, read-out: IC50 (μg/mL) ± SD on T. cruzi epimastigotes; for SI (selectivity index, relation between CC50 and IC50): CC50 splenocytes / IC50 epimastigotes.
The subject of the next data set is T. cruzi (K-98 clone). Put plainly: In vivo trypanocidal activity, murine model of Chagas disease. Also on record: species or system BALB/c mice. The conditions noted are these: 1 mg/kg/day i.p.
Another data set concerns HeLa cells. The conditions noted are these: read-out: IC50, cytotoxicity on HeLa cells, ref [28]; cited from earlier work.

These results are taken from article PMC8757452 (ACS Omega, 2021).

≈ marks a conversion by molar mass, not a printed value.

`COC1=C(C(C)C)C(=O)C2=C(C[C@@]34CCCC(C)(C)[C@@H]3C[C@]2(O)O4)C1=O` [K, Komaroviquinone]: the IC50 of komaroviquinone entry in the data set with T. cruzi epimastigotes [1] (T. cruzi epimastigotes) was “a Komaroviquinone IC50 = 1.00 μg/mL ref ([14])”. For the same molecule, the “log (1/IC50) of komaroviquinone” value in the data set with T. cruzi epimastigotes [1] (from IC50 = 1.00 μg/mL, IC50 in molar) is reported as 5.43.
Take `O=C(Cn1ccnc1[N+](=O)[O-])NCc1ccccc1` [benznidazole]: the IC50 in the data set with T. cruzi epimastigotes [2] (Trypanosoma cruzi) stood at 1 ± 0.62 µg/mL (≈ 3.84 µM). Moreover, the “area under the parasitemia curve (AUC)” value with T. cruzi (K-98 clone) (days 11-15 post-infection) is reported as 4. The sterile cure entry in the data set with T. cruzi (K-98 clone) (five days) is given as “neither Bz was able to cure”.
For orientation: inhibition means the change of the read-out against control, counted positive when it falls. In the case of `C=C1C(=O)O[C@@H]2C[C@@H](C)[C@@H]3C=CC(=O)[C@@]3(C)[C@@H](O)[C@H]12` [compound 10, helenalin], in the data set with T. cruzi epimastigotes [2], the “SI (selectivity index, relation between CC50 and IC50)” value is listed as 1.1. Besides, the IC50 in the data set on T. cruzi epimastigotes [2] (Trypanosoma cruzi) was determined as 0.29 ± 0.05 µg/mL (≈ 1.11 µM). The inhibition at 1.5 µg/mL in the data set on T. cruzi epimastigotes [2] (Trypanosoma cruzi, read-out: inhibition of parasite replication) turned out to be 66%.
As for `C=C1C(=O)O[C@@H]2[C@H]1CC[C@H](C)[C@@]1(O)C=CC(=O)[C@@]21C` [compound 14, hymenin], in the data set with T. cruzi epimastigotes [2], the “SI (selectivity index, relation between CC50 and IC50)” value worked out at 0.8. In the data set with T. cruzi epimastigotes [2] (Trypanosoma cruzi), the IC50 is 1.5 ± 0.09 µg/mL (≈ 5.72 µM).
As to `C=C1C[C@H](O)[C@H](Br)C(C)(C)[C@@]12CCC(C)=C(Cl)C2` [elatol], in the data set with HeLa cells, the IC50 was 1300 nM.
